Source: patent US20260308184A1, “SUBSTITUTED PYRIMIDINEDIONE COMPOUNDS, COMPOSITIONS, AND USES THEREOF” (LAKEWOOD AMEDEX, INC., priority 2023, published 2026)

Key:
Assay in all cases: Minimum Inhibitory Concentration, broth microdilution
Format in all cases: cell-based
Conditions in all cases: pH 4-5, Mueller Hinton Broth, 18 to 24 hours
[1] = system: Escherichia coli (0102)
Method: (§1) MIC testing is conducted using the broth (Mueller Hinton Broth) microdilution procedures relevant to each organism group as established by the Clinical and Laboratory Standards Institute (CLSI; 3-7). MIC plates are prepared in accordance with CLSI (3-7). To prepare the test plates, automated liquid handlers are used to conduct serial dilutions and liquid transfers. Automated liquid handlers utilized in this study include the Multidrop 384 (Labsystems, Helsinki, Finland) and the Biomek 2000 (Beckman Coulter, Fullerton CA). The solution is diluted to desired pH using 1 M Citric Acid or 1 M NaOH buffer. A standardized inoculum of each test organism is prepared per CLSI methods (3, 5-7) to equal a 0.5 McFarland standard in the appropriate media followed by an additional 1:20 dilution (1:10 for anaerobes).
(§2) The plates are then inoculated with 10 μL of the diluted 0.5 McFarland suspension using the Biomek 2000 from low to high drug concentration, resulting in a final concentration of approximately 5×10^5 CFU/mL per well. An un-inoculated plate is incubated for the purpose of assessing solubility of the drug in the test media. The plates are stacked 3 to 4 high, covered with a sterile lid on the top plate, and incubated for 18 to 24 hours according to CLSI. The MIC is recorded as the lowest concentration of respective compound that inhibited visible growth of the organism.

[2] = system: Escherichia coli (6098)
Method: as §1, §2

[3] = system: Pseudomonas aeruginosa (6234)
Method: as §1, §2

[4] = system: Pseudomonas aeruginosa (6160)
Method: as §1, §2

[5] = system: Escherichia coli (6260)
Method: as §1, §2

[6] = system: Pseudomonas aeruginosa (0103)
Method: as §1, §2

Measured: MIC

Cc1cn([C@H]2C[C@H](O)[C@@H](COP(=O)(O)OCCCCO)O2)c(=O)[nH]c1=O [R-9]
50 mg/mL: [3]
100 mg/mL: all other assays above
